# Experimental data taken from PubChem BioAssay (NCI).
#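 Results reflect a 48-hour exposure of cells in 96-well plates to compound at five concentrations. GI50 marks 50% less growth. At the TGI there is no net growth.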
# What was measured:
# Assay in all cases: NCI tumour cell line growth inhibition, 48 h
# 786-0 renal = system: 786-0 renal
# A498 renal = system: A498 renal
# A549 NSCLC = system: A549 NSCLC
# ACHN renal = system: ACHN renal
# BT-549 breast = system: BT-549 breast
# CCRF-CEM leukemia = system: CCRF-CEM leukemia
# COLO 205 colon = system: COLO 205 colon
# DU-145 prostate = system: DU-145 prostate
# HCC-2998 colon = system: HCC-2998 colon
# HCT-116 colon = system: HCT-116 colon
# HCT-15 colon = system: HCT-15 colon
# HL-60(TB) leukemia = system: HL-60(TB) leukemia
# HOP-62 NSCLC = system: HOP-62 NSCLC
# HOP-92 NSCLC = system: HOP-92 NSCLC
# HS 578T breast = system: HS 578T breast
# HT29 colon = system: HT29 colon
# IGROV1 ovarian = system: IGROV1 ovarian
# K-562 leukemia = system: K-562 leukemia
# KM12 colon = system: KM12 colon
# LOX IMVI melanoma = system: LOX IMVI melanoma
# M14 melanoma = system: M14 melanoma
# MALME-3M melanoma = system: MALME-3M melanoma
# MCF7 breast = system: MCF7 breast
# MDA-MB-231 breast = system: MDA-MB-231 breast
# MDA-MB-435 = system: MDA-MB-435
# MOLT-4 leukemia = system: MOLT-4 leukemia
# NCI-H226 lung = system: NCI-H226 lung
# NCI-H23 lung = system: NCI-H23 lung
# NCI-H460 lung = system: NCI-H460 lung
# NCI-H522 lung = system: NCI-H522 lung
# NCI/ADR-RES ovarian = system: NCI/ADR-RES ovarian
# OVCAR-3 ovarian = system: OVCAR-3 ovarian
# OVCAR-4 ovarian = system: OVCAR-4 ovarian
# OVCAR-5 ovarian = system: OVCAR-5 ovarian
# OVCAR-8 ovarian = system: OVCAR-8 ovarian
# PC-3 prostate = system: PC-3 prostate
# RPMI-8226 leukemia = system: RPMI-8226 leukemia
# RXF 393 renal = system: RXF 393 renal
# SF-268 CNS = system: SF-268 CNS
# SF-295 CNS = system: SF-295 CNS
# SF-539 CNS = system: SF-539 CNS
# SK-MEL-2 melanoma = system: SK-MEL-2 melanoma
# SK-MEL-28 melanoma = system: SK-MEL-28 melanoma
# SK-MEL-5 melanoma = system: SK-MEL-5 melanoma
# SK-OV-3 ovarian = system: SK-OV-3 ovarian
# SN12C renal = system: SN12C renal
# SNB-19 CNS = system: SNB-19 CNS
# SNB-75 CNS = system: SNB-75 CNS
# SR leukemia = system: SR leukemia
# SW-620 colon = system: SW-620 colon
# T-47D breast = system: T-47D breast
# U251 CNS = system: U251 CNS
# UACC-257 melanoma = system: UACC-257 melanoma
# UACC-62 melanoma = system: UACC-62 melanoma
# UO-31 renal = system: UO-31 renal
smiles,measurement,setting,value
Cc1nc2cc(Nc3nc(Nc4ccc(F)cc4)nc(-c4ccc(Cl)cc4)n3)ccc2n1Cc1ccccc1,GI50,786-0 renal,6.48 µM
same,TGI,786-0 renal,52.3 µM
same,GI50,A498 renal,4.54 µM
same,TGI,A498 renal,> 100 µM
same,GI50,A549 NSCLC,6.18 µM
same,TGI,A549 NSCLC,36.9 µM
same,GI50,ACHN renal,3.89 µM
same,TGI,ACHN renal,> 100 µM
same,GI50,BT-549 breast,6.14 µM
same,TGI,BT-549 breast,39.8 µM
same,GI50,CCRF-CEM leukemia,3.35 µM
same,TGI,CCRF-CEM leukemia,> 100 µM
same,GI50,COLO 205 colon,3.17 µM
same,TGI,COLO 205 colon,59.8 µM
same,GI50,DU-145 prostate,23.4 µM
same,TGI,DU-145 prostate,> 100 µM
same,GI50,HCC-2998 colon,6.36 µM
same,TGI,HCC-2998 colon,> 100 µM
same,GI50,HCT-116 colon,5.04 µM
same,TGI,HCT-116 colon,> 100 µM
same,GI50,HCT-15 colon,3.77 µM
same,TGI,HCT-15 colon,> 100 µM
same,GI50,HL-60(TB) leukemia,3.28 µM
same,TGI,HL-60(TB) leukemia,> 100 µM
same,GI50,HOP-62 NSCLC,7.36 µM
same,TGI,HOP-62 NSCLC,27.3 µM
same,GI50,HOP-92 NSCLC,1.74 µM
same,TGI,HOP-92 NSCLC,23.7 µM
same,GI50,HS 578T breast,12.2 µM
same,TGI,HS 578T breast,> 100 µM
same,GI50,HT29 colon,4.63 µM
same,TGI,HT29 colon,> 100 µM
same,GI50,IGROV1 ovarian,5.9 µM
same,TGI,IGROV1 ovarian,> 100 µM
same,GI50,K-562 leukemia,5.13 µM
same,TGI,K-562 leukemia,> 100 µM
same,GI50,KM12 colon,4.32 µM
same,TGI,KM12 colon,> 100 µM
same,GI50,LOX IMVI melanoma,12.6 µM
same,TGI,LOX IMVI melanoma,> 100 µM
same,GI50,M14 melanoma,4.42 µM
same,TGI,M14 melanoma,> 100 µM
same,GI50,MALME-3M melanoma,5.29 µM
same,TGI,MALME-3M melanoma,22.4 µM
same,GI50,MCF7 breast,3.1 µM
same,TGI,MCF7 breast,> 100 µM
same,GI50,MDA-MB-231 breast,9.97 µM
same,TGI,MDA-MB-231 breast,> 100 µM
same,GI50,MDA-MB-435,3.6 µM
same,TGI,MDA-MB-435,> 100 µM
same,GI50,MOLT-4 leukemia,3.09 µM
same,TGI,MOLT-4 leukemia,> 100 µM
same,GI50,NCI-H226 lung,11.4 µM
same,TGI,NCI-H226 lung,37.2 µM
same,GI50,NCI-H23 lung,14.7 µM
same,TGI,NCI-H23 lung,> 100 µM
same,GI50,NCI-H460 lung,6.42 µM
same,TGI,NCI-H460 lung,> 100 µM
same,GI50,NCI-H522 lung,10.8 µM
same,TGI,NCI-H522 lung,68.2 µM
same,GI50,NCI/ADR-RES ovarian,5.51 µM
same,TGI,NCI/ADR-RES ovarian,33.8 µM
same,GI50,OVCAR-3 ovarian,7.91 µM
same,TGI,OVCAR-3 ovarian,> 100 µM
same,GI50,OVCAR-4 ovarian,2.86 µM
same,TGI,OVCAR-4 ovarian,17.6 µM
same,GI50,OVCAR-5 ovarian,5.76 µM
same,TGI,OVCAR-5 ovarian,> 100 µM
same,GI50,OVCAR-8 ovarian,3.93 µM
same,TGI,OVCAR-8 ovarian,22 µM
same,GI50,PC-3 prostate,3.69 µM
same,TGI,PC-3 prostate,> 100 µM
same,GI50,RPMI-8226 leukemia,2.62 µM
same,TGI,RPMI-8226 leukemia,> 100 µM
same,GI50,RXF 393 renal,4.21 µM
same,TGI,RXF 393 renal,38.5 µM
same,GI50,SF-268 CNS,10.1 µM
same,TGI,SF-268 CNS,97.3 µM
same,GI50,SF-295 CNS,4.81 µM
same,TGI,SF-295 CNS,58 µM
same,GI50,SF-539 CNS,11.3 µM
same,TGI,SF-539 CNS,28.7 µM
same,GI50,SK-MEL-2 melanoma,4.07 µM
same,TGI,SK-MEL-2 melanoma,41.1 µM
same,GI50,SK-MEL-28 melanoma,8.63 µM
same,TGI,SK-MEL-28 melanoma,> 100 µM
same,GI50,SK-MEL-5 melanoma,3.47 µM
same,TGI,SK-MEL-5 melanoma,> 100 µM
same,GI50,SK-OV-3 ovarian,10.9 µM
same,TGI,SK-OV-3 ovarian,> 100 µM
same,GI50,SN12C renal,46.4 µM
same,TGI,SN12C renal,> 100 µM
same,GI50,SNB-19 CNS,9.77 µM
same,TGI,SNB-19 CNS,> 100 µM
same,GI50,SNB-75 CNS,2.2 µM
same,TGI,SNB-75 CNS,10.5 µM
same,GI50,SR leukemia,2.88 µM
same,TGI,SR leukemia,9.55 µM
same,GI50,SW-620 colon,7.55 µM
same,TGI,SW-620 colon,> 100 µM
same,GI50,T-47D breast,2.44 µM
same,TGI,T-47D breast,24.8 µM
same,GI50,U251 CNS,12.5 µM
same,TGI,U251 CNS,> 100 µM
same,GI50,UACC-257 melanoma,8.91 µM
same,TGI,UACC-257 melanoma,> 100 µM
same,GI50,UACC-62 melanoma,6.3 µM
same,TGI,UACC-62 melanoma,> 100 µM
same,GI50,UO-31 renal,3.59 µM
same,TGI,UO-31 renal,> 100 µM
